In ChEMBL document CHEMBL3763120, “Phenyl Benzenesulfonylhydrazides Exhibit Selective Indoleamine 2,3-Dioxygenase Inhibition with Potent in Vivo Pharmacodynamic Activity and Antitumor Efficacy” (J Med Chem, 2016):

What was measured:
[1] = AUC (0 to infinity) in Sprague-Dawley rat plasma at 2 mg/kg, iv by LC-MS/MS analysis; type: ADME, organism-based; parameters: dose 2 mg/kg, route intravenous, time infinity
[2] = system: Mus musculus; assay: Decrease in ratio of kynurenine to tryptophan in C57BL/6 mouse at 50 mg/kg, po after 2 hrs by LC-MS/MS analysis; type: functional; details: C57BL/6, po
[3] = Plasma concentration in C57BL/6 mouse at 50 mg/kg, po after 2 hrs by LC-MS/MS analysis; type: ADME, organism-based
[4] = Plasma concentration in C57BL/6 mouse at 50 mg/kg, po after 5 hrs by LC-MS/MS analysis; type: ADME, organism-based
[5] = system: CT26; assay: Antitumor activity against mouse CT26 cells xenografted in Balb/c mouse assessed as median time to end point at 200 mg/kg, po bid for 22 days; type: functional
[6] = system: CT26; assay: Antitumor activity against mouse CT26 cells xenografted in Balb/c mouse assessed as tumor growth delay at 100 mg/kg, po bid for 22 days; type: functional; details: 528 h, read-out: TGI
[7] = system: Mus musculus; assay: Decrease in ratio of kynurenine to tryptophan in Balb/c mouse tumor xenografted with CT26 cells at 100 mg/kg bid for 18 days administered via oral gavage after 6 hrs by LC-MS/MS analysis; type: functional
[8] = molecular target: Prostaglandin E2 receptor EP4 subtype (Homo sapiens) (UniProt P35408); assay: Inhibition of Prostaglandin E2 receptor EP4 (unknown origin) at 10 uM
[9] = species: Homo sapiens; assay: Inhibition of Phorbol ester receptor (unknown origin) at 10 uM
[10] = molecular target: Muscarinic acetylcholine receptor M3 (Homo sapiens) (UniProt P20309); assay: Inhibition of Muscarinic M3 receptor (unknown origin) at 10 uM
[11] = molecular target: Cysteinyl leukotriene receptor 1 (Homo sapiens) (UniProt Q9Y271); assay: Inhibition of CysLT1 receptor (unknown origin) at 10 uM
[12] = molecular target: Interleukin-1 receptor type 1 (Homo sapiens) (UniProt P14778); assay: Inhibition of IL-1 receptor (unknown origin) at 10 uM
[13] = species: Homo sapiens; assay: Inhibition of I2 imidazoline binding site (unknown origin) at 10 uM
[14] = molecular target: Histamine H2 receptor (Homo sapiens) (UniProt P25021); assay: Inhibition of Histamine H2 receptor (unknown origin) at 10 uM
[15] = molecular target: T1, Glutamate [NMDA] receptor (Homo sapiens) (UniProt Q05586+Q12879+Q13224+O15399+O60391+Q14957+Q8TCU5); assay: Inhibition of NMDA receptor phencyclidine binding site (unknown origin) at 10 uM
[16] = molecular target: T1, Glutamate [NMDA] receptor (Homo sapiens); assay: Inhibition of NMDA receptor glycine binding site (unknown origin) at 10 uM
[17] = molecular target: Glucocorticoid receptor (Homo sapiens) (UniProt P04150); assay: Inhibition of Glucocorticoid receptor (unknown origin) at 10 uM
[18] = molecular target: Gamma-aminobutyric acid type B receptor subunit 1 (Homo sapiens) (UniProt Q9UBS5); assay: Inhibition of GABAB1A receptor (unknown origin) at 10 uM
[19] = species: Homo sapiens; assay: Inhibition of GABAA receptor central flunitrazepam site (unknown origin) at 10 uM
[20] = molecular target: Estrogen receptor (Homo sapiens) (UniProt P03372); assay: Inhibition of ERalpha (unknown origin) at 10 uM
[21] = molecular target: Endothelin receptor type B (Homo sapiens) (UniProt P24530); assay: Inhibition of ETB receptor (unknown origin) at 10 uM
[22] = molecular target: Endothelin-1 receptor (Homo sapiens) (UniProt P25101); assay: Inhibition of ETA receptor (unknown origin) at 10 uM
[23] = species: Homo sapiens; assay: Inhibition of D4.2 receptor (unknown origin) at 10 uM
[24] = molecular target: D(3) dopamine receptor (Homo sapiens) (UniProt P35462); assay: Inhibition of Dopamine D3 receptor (unknown origin) at 10 uM
[25] = molecular target: D(1A) dopamine receptor (Homo sapiens) (UniProt P21728); assay: Inhibition of Dopamine D1 receptor (unknown origin) at 10 uM
[26] = species: Homo sapiens; assay: Inhibition of N-type calcium channel (unknown origin) at 10 uM
[27] = molecular target: L-type calcium channel, benzothiazepine binding site (Homo sapiens, UniProt O60840+Q01668+Q13698+Q13936); assay: Inhibition of L-type calcium channel benzothiazepine binding site (unknown origin) at 10 uM; type: protein assay
[28] = molecular target: Androgen receptor (Homo sapiens) (UniProt P10275); assay: Inhibition of Androgen receptor (unknown origin) at 10 uM
[29] = molecular target: Beta-2 adrenergic receptor (Homo sapiens) (UniProt P07550); assay: Inhibition of Adrenergic beta2 receptor (unknown origin) at 10 uM
[30] = molecular target: Beta-1 adrenergic receptor (Homo sapiens) (UniProt P08588); assay: Inhibition of Adrenergic beta1 receptor (unknown origin) at 10 uM
[31] = molecular target: Alpha-1D adrenergic receptor (Homo sapiens) (UniProt P25100); assay: Inhibition of Adrenergic alpha1D receptor (unknown origin) at 10 uM
[32] = molecular target: Alpha-1A adrenergic receptor (Homo sapiens) (UniProt P35348); assay: Inhibition of Adrenergic alpha1A receptor (unknown origin) at 10 uM
[33] = molecular target: Adenosine receptor A3 (Homo sapiens) (UniProt P0DMS8); assay: Inhibition of Adenosine A3 receptor (unknown origin) at 10 uM
[34] = species: Homo sapiens; assay: Inhibition of Purinergic P2Y receptor (unknown origin) at 10 uM
[35] = species: Homo sapiens; assay: Inhibition of rolipram binding site (unknown origin) at 10 uM
[36] = molecular target: 5-hydroxytryptamine receptor 2B (Homo sapiens) (UniProt P41595); assay: Inhibition of 5-HT2B receptor (unknown origin) at 10 uM
[37] = species: Homo sapiens; assay: Inhibition of Sodium channel site 2 (unknown origin) at 10 uM
[38] = molecular target: Substance-P receptor (Homo sapiens) (UniProt P25103); assay: Inhibition of Tachykinin NK1 receptor (unknown origin) at 10 uM
[39] = molecular target: Sodium- and chloride-dependent GABA transporter 1 (Homo sapiens) (UniProt P30531); assay: Inhibition of GABA transporter (unknown origin) at 10 uM
[40] = molecular target: Sodium-dependent serotonin transporter (Homo sapiens) (UniProt P31645); assay: Inhibition of Serotonin transporter (unknown origin) at 10 uM
[41] = species: Homo sapiens; assay: Inhibition of potassium channel (unknown origin) at 10 uM
[42] = Half life in Sprague-Dawley rat plasma at 10 mg/kg, po by LC-MS/MS analysis; type: ADME, organism-based
[43] = Tmax in Sprague-Dawley rat plasma at 10 mg/kg, po by LC-MS/MS analysis; type: ADME, organism-based
[44] = species: Homo sapiens; assay: Inhibition of Purinergic P2X receptor (unknown origin) at 10 uM
[45] = molecular target: Indoleamine 2,3-dioxygenase 1 (Homo sapiens, UniProt P14902); assay: Inhibition of Indoleamine 2,3-dioxygenase in human HeLa cells in presence of L-tryptophan as substrate after 24 hrs in presence of L-tryptophan; type: cell-based
[46] = Half life in Sprague-Dawley rat plasma at 2 mg/kg, iv by LC-MS/MS analysis; type: ADME, organism-based; details: Sprague-Dawley, plasma

Chain of Beta-1 adrenergic receptor (Homo sapiens) (P08588 whole entry, looked up): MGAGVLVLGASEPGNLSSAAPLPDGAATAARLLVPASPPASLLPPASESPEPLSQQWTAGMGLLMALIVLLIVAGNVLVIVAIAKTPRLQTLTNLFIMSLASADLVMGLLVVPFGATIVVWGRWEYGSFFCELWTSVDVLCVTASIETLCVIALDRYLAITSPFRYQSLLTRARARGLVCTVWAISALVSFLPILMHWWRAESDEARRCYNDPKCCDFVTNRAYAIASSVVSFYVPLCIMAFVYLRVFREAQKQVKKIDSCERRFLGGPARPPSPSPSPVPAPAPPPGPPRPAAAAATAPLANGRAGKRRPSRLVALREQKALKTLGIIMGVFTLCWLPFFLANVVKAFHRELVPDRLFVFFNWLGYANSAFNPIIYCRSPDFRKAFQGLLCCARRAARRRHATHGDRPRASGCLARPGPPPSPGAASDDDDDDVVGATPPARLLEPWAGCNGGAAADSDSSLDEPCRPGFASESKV
Chain of Prostaglandin E2 receptor EP4 subtype (Homo sapiens) (P35408 whole entry): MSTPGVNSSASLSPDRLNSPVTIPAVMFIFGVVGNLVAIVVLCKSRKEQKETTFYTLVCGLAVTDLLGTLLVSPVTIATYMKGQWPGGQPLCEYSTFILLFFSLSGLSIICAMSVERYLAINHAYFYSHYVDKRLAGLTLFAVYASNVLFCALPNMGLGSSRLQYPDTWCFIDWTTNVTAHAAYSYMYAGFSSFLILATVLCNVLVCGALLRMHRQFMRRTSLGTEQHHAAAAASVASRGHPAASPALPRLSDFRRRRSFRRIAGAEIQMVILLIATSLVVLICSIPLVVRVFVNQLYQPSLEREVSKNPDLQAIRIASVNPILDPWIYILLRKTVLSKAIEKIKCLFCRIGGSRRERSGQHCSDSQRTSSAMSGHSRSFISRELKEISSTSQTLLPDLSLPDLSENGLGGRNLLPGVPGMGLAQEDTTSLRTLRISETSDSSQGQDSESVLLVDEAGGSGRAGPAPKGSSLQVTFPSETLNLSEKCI
Chain of Cysteinyl leukotriene receptor 1 (Homo sapiens) (Q9Y271 whole entry): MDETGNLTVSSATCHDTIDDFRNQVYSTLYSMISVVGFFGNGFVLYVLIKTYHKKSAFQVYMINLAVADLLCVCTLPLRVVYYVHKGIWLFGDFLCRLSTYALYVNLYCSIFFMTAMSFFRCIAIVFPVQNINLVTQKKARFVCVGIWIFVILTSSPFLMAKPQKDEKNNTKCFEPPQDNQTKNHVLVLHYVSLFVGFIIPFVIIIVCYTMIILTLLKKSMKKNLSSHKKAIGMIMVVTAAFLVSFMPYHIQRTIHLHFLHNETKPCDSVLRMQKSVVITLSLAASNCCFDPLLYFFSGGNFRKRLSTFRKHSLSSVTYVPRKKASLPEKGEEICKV
Chain of Interleukin-1 receptor type 1 (Homo sapiens) (P14778 whole entry): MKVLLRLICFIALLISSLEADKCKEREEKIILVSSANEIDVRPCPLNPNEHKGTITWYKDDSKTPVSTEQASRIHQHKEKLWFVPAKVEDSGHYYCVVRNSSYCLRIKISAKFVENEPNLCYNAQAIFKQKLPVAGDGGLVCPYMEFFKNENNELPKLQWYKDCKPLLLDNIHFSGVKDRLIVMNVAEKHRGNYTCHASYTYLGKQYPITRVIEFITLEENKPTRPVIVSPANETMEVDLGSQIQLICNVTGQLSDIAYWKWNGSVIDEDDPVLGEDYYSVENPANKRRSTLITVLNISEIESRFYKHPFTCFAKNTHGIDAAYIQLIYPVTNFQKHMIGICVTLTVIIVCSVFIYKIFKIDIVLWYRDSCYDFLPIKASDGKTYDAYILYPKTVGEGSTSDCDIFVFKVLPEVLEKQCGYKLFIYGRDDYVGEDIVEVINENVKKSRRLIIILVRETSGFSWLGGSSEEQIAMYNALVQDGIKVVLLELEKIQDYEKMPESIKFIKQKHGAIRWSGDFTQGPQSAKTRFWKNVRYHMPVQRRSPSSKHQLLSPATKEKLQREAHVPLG
Chain of Histamine H2 receptor (Homo sapiens) (P25021 whole entry): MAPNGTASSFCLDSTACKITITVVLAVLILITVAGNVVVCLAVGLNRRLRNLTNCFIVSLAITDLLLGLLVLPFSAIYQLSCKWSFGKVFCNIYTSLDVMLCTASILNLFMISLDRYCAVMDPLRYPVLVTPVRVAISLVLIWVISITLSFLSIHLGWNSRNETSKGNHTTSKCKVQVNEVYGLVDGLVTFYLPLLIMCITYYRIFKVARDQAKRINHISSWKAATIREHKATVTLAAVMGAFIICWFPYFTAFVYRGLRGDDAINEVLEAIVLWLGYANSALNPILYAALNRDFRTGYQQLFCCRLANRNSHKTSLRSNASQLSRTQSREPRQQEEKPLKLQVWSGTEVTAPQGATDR
Chain of Sodium- and chloride-dependent GABA transporter 1 (Homo sapiens) (P30531 whole entry, looked up): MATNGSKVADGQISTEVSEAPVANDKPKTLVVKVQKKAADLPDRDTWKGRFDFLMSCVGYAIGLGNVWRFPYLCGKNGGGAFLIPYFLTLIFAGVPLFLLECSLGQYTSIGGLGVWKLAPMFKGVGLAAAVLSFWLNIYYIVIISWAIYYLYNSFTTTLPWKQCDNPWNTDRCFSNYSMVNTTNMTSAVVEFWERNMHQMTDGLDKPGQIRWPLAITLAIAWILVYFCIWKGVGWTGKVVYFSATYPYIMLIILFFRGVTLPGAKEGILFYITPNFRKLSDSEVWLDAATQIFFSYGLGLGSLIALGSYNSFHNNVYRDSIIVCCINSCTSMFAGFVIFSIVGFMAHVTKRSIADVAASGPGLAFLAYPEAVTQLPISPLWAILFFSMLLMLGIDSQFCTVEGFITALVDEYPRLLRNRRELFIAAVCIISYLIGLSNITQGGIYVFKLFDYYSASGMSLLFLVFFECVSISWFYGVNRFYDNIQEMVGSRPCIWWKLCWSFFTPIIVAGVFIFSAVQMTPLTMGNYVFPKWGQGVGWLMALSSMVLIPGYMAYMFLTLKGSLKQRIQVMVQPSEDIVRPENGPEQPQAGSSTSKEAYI
Chain of D(1A) dopamine receptor (Homo sapiens) (P21728 whole entry): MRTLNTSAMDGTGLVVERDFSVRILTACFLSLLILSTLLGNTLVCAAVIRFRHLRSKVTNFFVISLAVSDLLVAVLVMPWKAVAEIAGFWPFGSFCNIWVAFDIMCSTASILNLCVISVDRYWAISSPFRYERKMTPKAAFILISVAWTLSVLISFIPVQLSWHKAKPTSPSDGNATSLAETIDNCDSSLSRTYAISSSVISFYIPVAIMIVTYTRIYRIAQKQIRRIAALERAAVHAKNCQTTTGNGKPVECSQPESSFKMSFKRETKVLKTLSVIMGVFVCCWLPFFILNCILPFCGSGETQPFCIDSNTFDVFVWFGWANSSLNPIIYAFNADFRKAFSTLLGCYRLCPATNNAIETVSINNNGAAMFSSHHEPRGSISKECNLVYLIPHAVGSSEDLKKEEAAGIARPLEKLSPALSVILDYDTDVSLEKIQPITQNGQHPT
Chain of Estrogen receptor (Homo sapiens) (P03372 whole entry): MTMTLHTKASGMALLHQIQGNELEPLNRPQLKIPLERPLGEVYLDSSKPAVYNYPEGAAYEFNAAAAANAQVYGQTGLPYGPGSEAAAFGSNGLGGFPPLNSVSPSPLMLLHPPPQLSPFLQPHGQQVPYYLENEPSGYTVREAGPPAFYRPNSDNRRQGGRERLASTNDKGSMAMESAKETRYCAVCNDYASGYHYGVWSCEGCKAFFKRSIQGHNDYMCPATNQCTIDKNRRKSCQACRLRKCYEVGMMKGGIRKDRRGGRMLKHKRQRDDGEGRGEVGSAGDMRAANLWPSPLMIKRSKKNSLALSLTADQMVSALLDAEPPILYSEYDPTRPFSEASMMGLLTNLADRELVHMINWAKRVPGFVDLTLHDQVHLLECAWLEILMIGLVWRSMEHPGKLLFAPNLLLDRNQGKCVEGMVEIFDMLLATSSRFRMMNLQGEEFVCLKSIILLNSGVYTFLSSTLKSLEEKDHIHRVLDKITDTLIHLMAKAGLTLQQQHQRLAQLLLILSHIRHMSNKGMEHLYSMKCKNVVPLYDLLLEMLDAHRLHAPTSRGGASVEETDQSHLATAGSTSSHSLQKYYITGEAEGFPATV
Chain of Sodium-dependent serotonin transporter (Homo sapiens) (P31645 whole entry, looked up): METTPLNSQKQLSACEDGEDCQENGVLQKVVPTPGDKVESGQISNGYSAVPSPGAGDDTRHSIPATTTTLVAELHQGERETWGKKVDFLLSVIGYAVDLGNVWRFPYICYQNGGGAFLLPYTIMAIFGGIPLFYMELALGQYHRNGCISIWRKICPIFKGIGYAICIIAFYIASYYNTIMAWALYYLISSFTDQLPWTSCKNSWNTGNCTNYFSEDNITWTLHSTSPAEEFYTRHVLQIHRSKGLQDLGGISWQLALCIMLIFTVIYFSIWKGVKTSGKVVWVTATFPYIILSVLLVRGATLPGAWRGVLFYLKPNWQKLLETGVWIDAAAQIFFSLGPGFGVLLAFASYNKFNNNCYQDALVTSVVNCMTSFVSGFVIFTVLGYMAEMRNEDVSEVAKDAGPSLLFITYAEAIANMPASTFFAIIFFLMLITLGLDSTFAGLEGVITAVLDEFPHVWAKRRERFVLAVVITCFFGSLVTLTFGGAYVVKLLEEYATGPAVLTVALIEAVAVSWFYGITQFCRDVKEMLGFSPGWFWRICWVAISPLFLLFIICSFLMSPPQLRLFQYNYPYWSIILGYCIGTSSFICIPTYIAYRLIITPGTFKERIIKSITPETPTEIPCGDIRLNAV
Chain of 5-hydroxytryptamine receptor 2B (Homo sapiens) (P41595 whole entry): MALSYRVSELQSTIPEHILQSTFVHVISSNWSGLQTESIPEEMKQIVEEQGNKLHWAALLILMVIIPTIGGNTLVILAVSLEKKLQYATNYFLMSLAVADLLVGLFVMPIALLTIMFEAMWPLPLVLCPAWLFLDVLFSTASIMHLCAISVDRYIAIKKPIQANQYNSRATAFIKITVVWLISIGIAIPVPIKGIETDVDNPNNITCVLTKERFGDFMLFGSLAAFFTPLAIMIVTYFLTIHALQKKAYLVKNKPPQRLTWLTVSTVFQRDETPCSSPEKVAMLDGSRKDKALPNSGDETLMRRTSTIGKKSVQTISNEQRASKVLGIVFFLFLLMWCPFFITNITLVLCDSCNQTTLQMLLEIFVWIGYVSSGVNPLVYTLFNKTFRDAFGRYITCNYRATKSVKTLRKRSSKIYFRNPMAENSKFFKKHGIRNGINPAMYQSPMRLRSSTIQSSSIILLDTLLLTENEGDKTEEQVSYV

O=C1Cc2cc(S(=O)(=O)NNc3ccc(Br)cc3)ccc2N1
AUC(0-inf) [1]: 2430 ng·h/mL
inhibition in vivo at 50 mg/kg [2]: 31%
concentration at 2 h [3]: 4 µM
concentration at 5 h [4]: 2.2 µM
Time [5]: 6.4 days
inhibition in vivo at 100 mg/kg [6]: 40%
inhibition in vivo at 100 mg/kg [7]: 83%
inhibition [8]: < 50%
inhibition [9]: < 50%
inhibition [10]: < 50%
inhibition [11]: < 50%
inhibition [12]: < 50%
inhibition [13]: < 50%
inhibition [14]: < 50%
inhibition [15]: < 50%
inhibition [16]: < 50%
inhibition [17]: < 50%
inhibition [18]: < 50%
inhibition [19]: < 50%
inhibition [20]: < 50%
inhibition [21]: < 50%
inhibition [22]: < 50%
inhibition [23]: < 50%
inhibition [24]: < 50%
inhibition [25]: < 50%
inhibition [26]: < 50%
inhibition at 10 µM [27]: < 50%
inhibition [28]: < 50%
inhibition [29]: < 50%
inhibition [30]: < 50%
inhibition [31]: < 50%
inhibition [32]: < 50%
inhibition [33]: < 50%
inhibition [34]: < 50%
inhibition [35]: < 50%
inhibition [36]: < 50%
inhibition [37]: < 50%
inhibition [38]: < 50%
inhibition [39]: < 50%
inhibition [40]: < 50%
inhibition [41]: < 50%
half-life [42]: 2.3 h
Tmax [43]: 0.8 h
inhibition [44]: < 50%
EC50 [45]: 67.6 nM
half-life [46]: 2.3 h
